Data taken from ChEMBL document CHEMBL5126532, “Synthetic approaches and structural diversity of triazolylbutanols derived from voriconazole in the antifungal drug development” (Eur J Med Chem, 2022).
In brackets after ≈: the same amount, converted by molar mass. Values belong to the compound of their own block, whether it stands above or below them.

Legend:
[1] = Prodrug conversion in rat plasma assessed as half life; format: ADME, cell-free
Candida tropicalis = experiment: Antifungal activity against Candida tropicalis; format: functional
Nakaseomyces glabratus = experiment: Antifungal activity against Candida glabrata; format: functional
Candida parapsilosis = experiment: Antifungal activity against Candida parapsilosis; format: functional; settings: Lodderomyces parapsilosis
Aspergillus fumigatus [2] = experiment: Antifungal activity against Aspergillus fumigatus SANK 10569 by 96-well microplate method; format: functional
Pichia kudriavzevii = experiment: Antifungal activity against Candida krusei; format: functional
Cryptococcus neoformans [3] = experiment: Antifungal activity against Cryptococcus neoformans TIMM 1855 by 96-well microplate method; format: functional
Aspergillus flavus = experiment: Antifungal activity against Aspergillus flavus SANK 18497 by 96-well microplate method; format: functional
Candida albicans [4] = experiment: In vivo antifungal activity against Candida albicans infected in CDF1 mouse treated po or iv immediately after infection measured on day 7; format: functional; settings: 168 h, time 7 day
Candida albicans [5] = experiment: Antifungal activity against Candida albicans; format: functional
Candida albicans [6] = experiment: Antifungal activity against Candida albicans SANK 51486 by 96-well microplate method; format: functional
Candida albicans [7] = experiment: In vivo antifungal activity against Candida albicans infected in CDF1 mouse treated po or iv 2 hrs after infection twice daily for 2 days measured on day 10; format: functional; settings: 240 h, time 10 day
Aspergillus fumigatus [8] = experiment: Antifungal activity against Aspergillus fumigatus in 96-well microplate method; format: functional
Aspergillus fumigatus [9] = experiment: In vivo antifungal activity against Aspergillus fumigatus infected in Fisher rat administered IV; format: functional
Candida albicans [10] = experiment: In vivo antifungal activity against Candida albicans ATCC48130 infected in Fisher rat administered IV; format: functional
Candida albicans [11] = experiment: In vivo antifungal activity against Candida albicans ATCC48130 infected in Fisher rat administered po; format: functional
Aspergillus fumigatus [12] = experiment: In vivo antifungal activity against Aspergillus fumigatus infected in Fisher rat administered po; format: functional
[13] = Oral bioavailability in monkey relative to control; format: ADME, organism-based, Macaca mulatta; settings: rhesus monkey, in vivo
Aspergillus = experiment: Antifungal activity against Aspergillus; format: functional
Candida albicans [14] = experiment: Antifungal activity against Candida albicans TIMM1756 assessed as inhibition of fungal growth incubated for 20 hrs; format: functional
Candida albicans [15] = experiment: Antifungal activity against Candida albicans TIMM1756 by agar-dilution assay; format: functional
Cryptococcus neoformans [16] = experiment: Antifungal activity against Cryptococcus neoformans TIMM1855 by agar-dilution assay; format: functional; settings: TIMM 1855
Cryptococcus neoformans [17] = experiment: Antifungal activity against Cryptococcus neoformans TIMM1740 by agar-dilution assay; format: functional
Aspergillus fumigatus [18] = experiment: Antifungal activity against Aspergillus fumigatus IFO6344 assessed as inhibition of fungal growth incubated for 20 hrs; format: functional
Candida albicans [19] = experiment: Antifungal activity against Candida albicans TIMM1850 by agar-dilution assay; format: functional
Cryptococcus neoformans [20] = experiment: Antifungal activity against Cryptococcus neoformans TIMM1855 assessed as inhibition of fungal growth incubated for 68 hrs; format: functional
Aspergillus fumigatus [21] = experiment: Antifungal activity against Aspergillus fumigatus TIMM1728 by agar-dilution assay; format: functional
Aspergillus fumigatus [22] = experiment: In vivo antifungal activity against Aspergillus fumigatus infected in CDF1 mouse treated po 4 hrs after injection twice daily for 2 days measured on day 10; format: functional; settings: 48 h, time 2 day
Candida albicans [23] = experiment: In vivo antifungal activity against Candida albicans infected in CDF1 mouse treated po 4 hrs after injection twice daily for 2 days measured on day 10; format: functional; settings: 48 h, time 2 day
Aspergillus fumigatus [24] = experiment: Antifungal activity against Aspergillus fumigatus 437 by agar-dilution assay; format: functional
Candida albicans [25] = experiment: Antifungal activity against Candida albicans TIMM1850 assessed as inhibition of fungal growth incubated for 20 hrs; format: functional
Aspergillus fumigatus [26] = experiment: Antifungal activity against Aspergillus fumigatus IFO6344 by agar-dilution assay; format: functional
Cryptococcus neoformans [27] = experiment: Antifungal activity against Cryptococcus neoformans TIMM1740 assessed as inhibition of fungal growth incubated for 68 hrs; format: functional
Aspergillus fumigatus [28] = experiment: Antifungal activity against Aspergillus fumigatus TIMM1728 assessed as inhibition of fungal growth incubated for 20 hrs; format: functional
[29] = Metabolic stability in human plasma assessed as half life by measuring TAK-456 metabolite formation preinubated for 5 mins followed by compound addition measured at 5 to 120 mins by HPLC analysis; format: ADME, cell-free; settings: time 5-120 min
[30] = Metabolic stability in ICR mouse plasma assessed as half life by measuring TAK-456 metabolite formation preincubated for 5 mins followed by compound addition measured at 5 to 120 mins by HPLC analysis; format: ADME, cell-free; settings: time 5-120 min
[31] = Metabolic stability in Sprague-Dawley rat plasma assessed as half life by measuring TAK-456 metabolite formation preincubated for 5 mins followed by compound addition measured at 5 to 120 mins by HPLC analysis; format: ADME, cell-free; settings: time 5-120 min
Candida albicans [32] = experiment: Antifungal activity against Candida albicans assessed as inhibition of fungal growth incubated for 20 hrs; format: functional

t1/2 [1]: 13 min
Structure (SMILES): CC(=O)OCc1ccccc1N(C)C(=O)OC[n+]1cnn(C[C@](O)(c2ccc(F)cc2F)[C@@H](C)c2nc(-c3ccc(C#N)cc3)cs2)c1.[Cl-]

Structure (SMILES): CCC(C)n1ncn(-c2ccc(N3CCN(c4ccc(OCC5COC(Cn6cncn6)(c6ccc(Cl)cc6Cl)O5)cc4)CC3)cc2)c1=O (stereo not given) [ITRACONAZOLE]
MIC (Candida tropicalis): ≤ 0.25 µg/mL
MIC (Nakaseomyces glabratus): ≤ 0.25 µg/mL
MIC (Candida parapsilosis): ≤ 0.25 µg/mL
MIC (Aspergillus fumigatus [2]): 0.031 µg/mL (≈ 0.0439 µM)
MIC (Pichia kudriavzevii): ≤ 0.25 µg/mL
MIC (Cryptococcus neoformans [3]): 0.031 µg/mL (≈ 0.0439 µM)
MIC (Aspergillus flavus): 0.031 µg/mL (≈ 0.0439 µM)
ED50 (Candida albicans [4]): 5.19 mg/kg
MIC (Candida albicans [5]): ≤ 0.25 µg/mL
MIC (Candida albicans [6]): 0.031 µg/mL (≈ 0.0439 µM)
ED50 (Candida albicans [7]): 19 mg/kg

MIC80 (Aspergillus fumigatus [8]): 4 µg/mL (≈ 8.11 µM)
Structure (SMILES): C[C@@H](N1Cc2sc(-c3ccc(C#N)cn3)nc2C1=O)[C@](O)(Cn1cncn1)c1ccc(F)cc1F

MIC (Candida tropicalis): 0.25 µg/mL (≈ 0.433 µM)
MIC (Nakaseomyces glabratus): 0.5 µg/mL (≈ 0.866 µM)
MIC (Candida parapsilosis): 0.25 µg/mL (≈ 0.433 µM)
MIC (Pichia kudriavzevii): 0.5 µg/mL (≈ 0.866 µM)
MIC (Candida albicans [5]): 0.12 µg/mL (≈ 0.208 µM)
Structure (SMILES): C[C@H](n1nnnc1CCN1CCN(c2cccc(C(F)(F)F)c2)CC1)[C@](O)(Cn1cncn1)c1ccc(F)cc1F

Structure (SMILES): CNCC(=O)Oc1c(C)cc(C[n+]2cnn(C[C@](O)(c3ccc(F)cc3F)[C@@H](C)c3nc(-c4ccc(C#N)cc4)cs3)c2)cc1C
ED50 (Aspergillus fumigatus [9]): 17 µmol/kg
ED50 (Candida albicans [10]): 4.6 µmol/kg
ED50 (Candida albicans [11]): 4.7 µmol/kg
ED50 (Aspergillus fumigatus [12]): 19 µmol/kg

bioavailability [13]: 87%
Structure (SMILES): C[C@@H](c1nc(-c2ccc(C#N)cc2)cs1)[C@](O)(Cn1cncn1)c1cc(F)ccc1F [ISAVUCONAZOLE]

MIC (Aspergillus fumigatus [2]): ≤ 0.008 µg/mL
MIC (Cryptococcus neoformans [3]): ≤ 0.008 µg/mL
MIC (Aspergillus): < 0.5 µg/mL
MIC (Aspergillus flavus): ≤ 0.008 µg/mL
MIC (Candida albicans [6]): ≤ 0.008 µg/mL
Structure (SMILES): C[C@@H](S[C@H]1CO[C@H](/C=C/C=C/c2ccc(C#N)cc2F)OC1)[C@](O)(Cn1cncn1)c1ccc(F)cc1F [EMBECONAZOLE]

MIC80 (Aspergillus fumigatus [8]): 4 µg/mL (≈ 8.02 µM)
Structure (SMILES): COc1ccc(-c2nc3c(s2)CN([C@H](C)[C@](O)(Cn2cncn2)c2ccc(F)cc2F)C3=O)cn1

MIC (Candida albicans [14]): ≤ 0.001 µg/mL
MIC (Candida albicans [15]): 0.002 µg/mL (≈ 0.00415 µM)
MIC (Cryptococcus neoformans [16]): 0.03 µg/mL (≈ 0.0623 µM)
MIC (Cryptococcus neoformans [17]): 0.03 µg/mL (≈ 0.0623 µM)
MIC (Aspergillus fumigatus [18]): 0.25 µg/mL (≈ 0.519 µM)
MIC (Candida albicans [19]): 0.002 µg/mL (≈ 0.00415 µM)
MIC (Cryptococcus neoformans [20]): 0.016 µg/mL (≈ 0.0332 µM)
MIC (Aspergillus fumigatus [21]): 0.03 µg/mL (≈ 0.0623 µM)
MIC (Aspergillus fumigatus [24]): 0.03 µg/mL (≈ 0.0623 µM)
MIC (Candida albicans [25]): ≤ 0.001 µg/mL
MIC (Aspergillus fumigatus [26]): 0.03 µg/mL (≈ 0.0623 µM)
MIC (Cryptococcus neoformans [27]): 0.016 µg/mL (≈ 0.0332 µM)
MIC (Aspergillus fumigatus [28]): 0.25 µg/mL (≈ 0.519 µM)
Structure (SMILES): C[C@@H](N1CCN(c2ccc(-n3ncnn3)cc2)C1=O)[C@](O)(Cn1cncn1)c1ccc(F)cc1F
ED50 (Aspergillus fumigatus [22]): 4 mg/kg
ED50 (Candida albicans [23]): 0.18 mg/kg

t1/2 [29]: 5 min
t1/2 [30]: 5 min
t1/2 [31]: 5 min
MIC (Candida albicans [32]): 0.016 µg/mL
Structure (SMILES): CC(=O)OC[n+]1cnn(C[C@](O)(c2ccc(F)cc2F)[C@@H](C)N2CCN(c3ccc(-n4cnnn4)cc3)C2=O)c1.[Cl-]
ED50 (Candida albicans [4]): 0.62 mg/kg
ED50 (Candida albicans [7]): 4.49 mg/kg
